Data from US12662491B2 (Redona Therapeutics, Inc., priority 2020, dated 2026).
pIC50: −log10 of the molar value.

What follows are compounds tested against T1, Zcchc11 enzyme (Homo sapiens, UniProt Q5TAX3) (assay: TUTase assay (Zcchc11 assay, Lin28a-dependent polyuridylation of pre-let-7)). Settings: LIN28A 10 nM, Zcchc11 0.2 nM, 5′-fluorescein pre-let-7 miRNA 2 nM, UTP 5 uM, room temperature, 30 minutes pre-incubation; read-out: Potency Lin28a-dep Z11 IC50.
T1 construct: made in house; host or cells: HEK293 cells (Zcchc11); E. coli Rosetta II (LIN28A)
T1 sequence (Q5TAX3 212-1420): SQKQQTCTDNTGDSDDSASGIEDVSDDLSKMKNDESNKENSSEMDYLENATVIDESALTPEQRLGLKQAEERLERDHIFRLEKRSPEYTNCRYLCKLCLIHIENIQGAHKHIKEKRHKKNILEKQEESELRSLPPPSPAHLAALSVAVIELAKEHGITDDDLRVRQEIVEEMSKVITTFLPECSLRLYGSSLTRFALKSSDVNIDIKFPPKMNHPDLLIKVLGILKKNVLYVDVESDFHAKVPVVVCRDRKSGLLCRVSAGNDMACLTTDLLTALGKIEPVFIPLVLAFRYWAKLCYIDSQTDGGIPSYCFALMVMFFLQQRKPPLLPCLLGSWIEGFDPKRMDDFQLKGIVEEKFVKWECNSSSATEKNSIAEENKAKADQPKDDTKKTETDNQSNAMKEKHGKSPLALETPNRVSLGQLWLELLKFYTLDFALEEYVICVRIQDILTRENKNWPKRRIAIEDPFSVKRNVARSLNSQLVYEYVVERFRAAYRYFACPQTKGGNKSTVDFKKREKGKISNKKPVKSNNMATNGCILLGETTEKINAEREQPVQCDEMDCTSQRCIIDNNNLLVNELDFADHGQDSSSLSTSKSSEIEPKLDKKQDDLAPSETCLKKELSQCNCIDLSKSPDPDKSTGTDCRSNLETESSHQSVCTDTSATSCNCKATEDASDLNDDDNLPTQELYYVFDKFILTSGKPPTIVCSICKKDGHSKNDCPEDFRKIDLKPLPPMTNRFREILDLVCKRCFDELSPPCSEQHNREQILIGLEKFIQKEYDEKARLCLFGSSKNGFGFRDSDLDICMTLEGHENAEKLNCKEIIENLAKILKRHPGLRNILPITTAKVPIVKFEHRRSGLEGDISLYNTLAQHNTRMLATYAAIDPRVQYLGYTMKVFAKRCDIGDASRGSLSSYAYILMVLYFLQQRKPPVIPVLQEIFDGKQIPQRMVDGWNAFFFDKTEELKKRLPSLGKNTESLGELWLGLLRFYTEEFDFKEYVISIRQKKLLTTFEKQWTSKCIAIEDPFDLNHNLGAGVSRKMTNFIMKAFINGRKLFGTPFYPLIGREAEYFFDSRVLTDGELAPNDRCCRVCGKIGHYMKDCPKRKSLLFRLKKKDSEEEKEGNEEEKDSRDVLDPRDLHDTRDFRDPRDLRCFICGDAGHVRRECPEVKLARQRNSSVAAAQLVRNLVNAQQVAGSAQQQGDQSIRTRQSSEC
Assay type: biochemical
Summary of the method: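 Human Zcchc11 residues 212-1420 (HEK293-expressed, MBP tag cleaved, C-terminal FLAG) at 0.2 nM, with 10 nM full-length human LIN28A and 2 nM 5′-fluorescein pre-let-7, preincubated with compound 30 min at room temperature. Reaction started with 5 uM UTP plus 4 nM 3′-rhodamine A20 quench probe; fluorescein loss read kinetically, IC50 from initial rates.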
With `CN(C[C@H]1CCCN1c1cc2c(cc1F)c(=O)c(C(=O)O)cn2-c1ccc(O)cc1)c1ncccc1Cl` [Example 10, (R)-7-(2-(((3-chloropyridin-2-yl)(methyl)amino)methyl)pyrrolidin-1-yl)-6-fluoro-1-(4-hydroxyphenyl)-4-oxo-1,4-dihydroquinoline-3-carboxylic acid] the pIC50 was 5.00 to 6.00.
`O=C(O)c1cn(-c2ccc(O)cc2)c2cc(N3CCC[C@@H]3Cn3ccc4ncccc43)c(F)cc2c1=O` [Example 11, (R)-7-(2-((1H-pyrrolo[3,2-b]pyridin-1-yl)methyl)pyrroledin-1-yl)-6-fluoro-1-(4-hydroxyphenyl)-4-oxo-1,4-dihydroquinoline-3-carboxylic acid] was tested, and the pIC50 was no less than 6.00.
`O=C(O)c1cn(-c2ccc(O)cc2)c2cc(N3CCC[C@@H]3COc3cc4[nH]ccc4cn3)c(F)cc2c1=O` [Example 12, (R)-7-(2-(((1H-pyrrolo[3,2-c]pyridine-6-yl)oxy)methyl)pyrrolidin-1-yl)-6-fluoro-1-(4-hydroxyphenyl)-4-oxo-1,4-dihydroquinoline-3-carboxylic acid] showed a pIC50 of no less than 6.00.
`Cc1cccnc1OC[C@H]1CCCN1c1cc2c(cc1F)c(=O)c(C(=O)O)cn2-c1ccc(N)nc1` [Example 13, (R)-1-(6-aminopyridin-3-yl)-6-fluoro-7-(2-(((3-methylpyridin-2-yl)oxy)methyl)pyrrolidin-1-yl)-4-oxo-1,4-dihydroquinoline-3-carboxylic acid] showed a pIC50 of no less than 6.00.
`Cc1cccnc1OC[C@H]1CCCN1c1cc2c(cc1F)c(=O)c(C(=O)O)cn2C1CCOCC1` [Example 14, 6-fluoro-7-[(2R)-2-[[(3-methylpyridin-2-yl)oxy]methyl]pyrrolidin-1-yl]-1-(oxan-4-yl)-4-oxoquinoline-3-carboxylic acid] showed a pIC50 of no less than 6.00.
In the case of `Cc1cccnc1OC[C@H]1CCCN1c1cc2c(cc1F)c(=O)c(C(=O)O)cn2-c1cnccn1` [Example 15, (R)-6-fluoro-7-(2-(((3-methylpyridin-2-yl)oxy)methyl)pyrrolidin-1-yl)-4-oxo-1-(pyrazin-2-yl)-1,4-dihydroquinoline-3-carboxylic acid], the pIC50 was no less than 6.00.
`CN(C)CCOc1cnc(-n2cc(C(=O)O)c(=O)c3cc(F)c(N4CCC[C@@H]4COc4ncccc4Cl)cc32)cn1` [Example 16, (R)-7-(2-(((3-chloropyridin-2-yl)oxy)methyl)pyrrolidin-1-yl)-1-(5-(2-(dimethylamino)ethoxy)pyrazin-2-yl)-6-fluoro-4-oxo-1,4-dihydroquinoline-3-carboxylic acid] showed a pIC50 of no less than 6.00.
Compound `Cc1cccnc1OC[C@H]1CCCN1c1cc2c(cc1F)c(=O)c(C(=O)O)cn2-c1ccc(OCCN(C)C)cc1` [Example 17, (R)-1-(4-(2-(dimethylamino)ethoxy)phenyl)-6-fluoro-7-(2-(((3-methylpyridin-2-yl)oxy)methyl)pyrrolidin-1-yl)-4-oxo-1,4-dihydroquinoline-3-carboxylic acid] has a pIC50 of no less than 6.00.
`O=C(O)c1cn(-c2ccc3c(c2)COC3)c2cc(N3CCC[C@@H]3COc3ncccc3Cl)c(Cl)cc2c1=O` [Example 18, (R)-6-chloro-7-(2-(((3-chloropyridin-2-yl)oxy)methyl)pyrrolidin-1-yl)-1-(1,3-dihydroisobenzofuran-5-yl)-4-oxo-1,4-dihydroquinoline-3-carboxylic acid] gave a pIC50 of no less than 6.00.
`O=C(O)c1cn(-c2cnccn2)c2nc(N3CCC[C@@H]3COc3ncccc3Cl)c(Cl)cc2c1=O` [Example 19, (R)-6-chloro-7-(2-(((3-chloropyridin-2-yl)oxy)methyl)pyrrolidin-1-yl)-4-oxo-1-(pyrazin-2-yl)-1,4-dihydro-1,8-naphthyridine-3-carboxylic acid] was tested, and the pIC50 was no less than 6.00.
For `Cc1cccnc1OC[C@H]1CCCN1c1c(F)cc2c(=O)c(C(=O)O)cn(-c3ccc(O)cc3F)c2c1F` [Example 20, (R)-6,8-difluoro-1-(2-fluoro-4-hydroxyphenyl)-7-(2-(((3-methylpyridin-2-yl)oxy)methyl)pyrrolidin-1-yl)-4-oxo-1,4-dihydroquinoline-3-carboxylic acid], the pIC50 was no less than 6.00.
`O=C(O)c1cn(-c2ccc(OCCO)cc2)c2cc(N3CCC[C@@H]3COc3ncccc3Br)c(F)cc2c1=O` [Example 21, (R)-7-(2-(((3-bromopyridin-2-yl)oxy)methyl)pyrrolidin-1-yl)-6-fluoro-1-(4-(2-hydroxyethoxy)phenyl)-4-oxo-1,4-dihydroquinoline-3-carboxylic acid] showed a pIC50 of no less than 6.00.
For `O=C(O)c1cn(-c2ccc(O)cc2F)c2cc(N3CCC[C@@H]3COc3ncccn3)c(F)cc2c1=O` [Example 22, (R)-6-fluoro-1-(2-fluoro-4-hydroxyphenyl)-4-oxo-7-(2-((pyrimidin-2-yloxy)methyl)pyrrolidin-1-yl)-1,4-dihydroquinoline-3-carboxylic acid], the pIC50 was 5.00 to 6.00.
`Cc1ccnn(C[C@H]2CCCN2c2cc3c(cc2F)c(=O)c(C(=O)O)cn3-c2ccc(O)cc2)c1=O` [Example 23, (R)-6-fluoro-1-(4-hydroxyphenyl)-7-(2-((5-methyl-6-oxopyridazin-1(6H)-yl)methyl)pyrrolidin-1-yl)-4-oxo-1,4-dihydroquinoline-3-carboxylic acid] was tested, and the pIC50 was no less than 6.00.
Compound `CC1(n2cc(C(=O)O)c(=O)c3cc(Cl)c(N4C(=O)CC[C@@H]4COc4ccccn4)cc32)CC1` [Example 24, (R)-6-chloro-1-(1-methylcyclopropyl)-4-oxo-7-(2-oxo-5-((pyridin-2-yloxy)methyl)pyrrolidin-1-yl)-1,4-dihydroquinoline-3-carboxylic acid] has a pIC50 of less than 4.30.
`COCC1CC(n2cc(C(=O)O)c(=O)c3cc(F)c(N4CCC[C@@H]4COc4ccccn4)cc32)C1` (stereo partly drawn) [Example 25, 6-fluoro-1-[3-(methoxymethyl)cyclobutyl]-4-oxo-7-[(2R)-2-[(pyridin-2-yloxy)methyl]pyrrolidin-1-yl]-1,4-dihydroquinoline-3-carboxylic acid] was tested, and the pIC50 was 4.30 to 5.00.
For `CS(=O)(=O)Nc1ccc(-n2cc(C(=O)O)c(=O)c3cc(Cl)c(N4CCC[C@@H]4COc4ncccc4Cl)cc32)cn1` [Example 26, 6-chloro-7-[(2R)-2-{[(3-chloropyridin-2-yl)oxy]methyl}pyrrolidin-1-yl]-1-(6-methanesulfonamidopyridin-3-yl)-4-oxo-1,4-dihydroquinoline-3-carboxylic acid], the pIC50 was no less than 6.00.
In the case of `O=C(O)c1cn(-c2cncc(O)n2)c2cc(N3CCC[C@@H]3COc3ccccn3)c(F)cc2c1=O` [Example 27, (R)-6-fluoro-1-(6-hydroxypyrazin-2-yl)-4-oxo-7-(2-((pyridin-2-yloxy)methyl)pyrrolidin-1-yl)-1,4-dihydroquinoline-3-carboxylic acid], the pIC50 was 5.00 to 6.00.
For `NC1CN(c2ccc(-n3cc(C(=O)O)c(=O)c4cc(Cl)c(N5CCC[C@@H]5COc5ncccc5Cl)cc43)cn2)C1` [Example 28, (R)-1-(6-(3-aminoazetidin-1-yl)pyridin-3-yl)-6-chloro-7-(2-(((3-chloropyridin-2-yl)oxy)methyl)pyrrolidin-1-yl)-4-oxo-1,4-dihydroquinoline-3-carboxylic acid], the pIC50 was no less than 6.00.
With `O=C(O)c1cn(C2CC2)c2c(F)c(N3CCC[C@@H]3COc3cccnn3)c(F)cc2c1=O` [Example 29, (R)-1-cyclopropyl-6,8-difluoro-4-oxo-7-(2-((pyridazin-3-yloxy)methyl)pyrrolidin-1-yl)-1,4-dihydroquinoline-3-carboxylic acid] the pIC50 was 5.00 to 6.00.
`COC1CC(n2cc(C(=O)O)c(=O)c3cc(F)c(N4CCC[C@@H]4COc4ncccc4C)cc32)C1` (stereo partly drawn) [Example 30, (R)-6-fluoro-1-(3-methoxycyclobutyl)-7-(2-(((3-methylpyridin-2-yl)oxy)methyl)pyrrolidin-1-yl)-4-oxo-1,4-dihydroquinoline-3-carboxylic acid] gave a pIC50 of no less than 6.00.
`CCS(=O)(=O)Nc1ccc(-n2cc(C(=O)O)c(=O)c3cc(Cl)c(N4CCC[C@@H]4COc4ncccc4Cl)cc32)cc1` [Example 31, (R)-6-chloro-7-(2-(((3-chloropyridin-2-yl)oxy)methyl)pyrrolidin-1-yl)-1-(4-(ethylsulfonamido)phenyl)-4-oxo-1,4-dihydroquinoline-3-carboxylic acid] gave a pIC50 of no less than 6.00.
